Series [1] concerns Staphylococcus aureus ATCC 6538. Nature of the series: ASTM International Method E2315 assessment of antibacterial activity (time kill in suspension). The series is classed as cell-based. The settings on record: for percent reduction in bacteria: 1% dispersion in water; for percent reduction of the test bacteria: pH 6, 30 seconds contact time. The procedure: A 1:99 mixture of the solid compound described in Experiment 1 was made by adding 0.2 gm. to 19.8 ml. of sterile water. […]. One ml of the inoculated substance was harvested at each contact time and neutralized in 9 ml of D/E broth. Enumerations were performed for each time point using standard microbiologic plating methods. At time zero, the percent reduction in bacteria was already 99.9997%, the limit of detection. The percent reduction at 30 seconds, 2 minutes and 10 minutes were also 99.9997%. When 0.1 ml of the 1% dispersion was diluted with 9.9 ml of sterile water to prepare a 0.1% dispersion and the same tests run, the percent reduction in bacteria count was 99.9997% at the 30-second contact time.

The subject of a further series is Escherichia coli 8739. Nature of the series: ASTM E2315 antibacterial activity. The series is classed as cell-based. The settings on record: 1% dispersion, 30 seconds contact time. Here is the method:
(§1) A 1:99 mixture of the solid compound described in Experiment 1 was made by adding 0.2 gm. to 19.8 ml. of sterile water. Following ASTM International Method E2315 for assessment of antibacterial activity, 10 ml of this uniform mixture was aliquoted into a sterile vessel to produce a 1% dispersion that was then inoculated with the Gram-positive bacterium Staphylococcus aureus ATCC 6538 at 25° C. for a target concentration of 1×10^6 CFU (cells)/ml. One ml of the inoculated substance was harvested at each contact time and neutralized in 9 ml of D/E broth. Enumerations were performed for each time point using standard microbiologic plating methods. At time zero, the percent reduction in bacteria was already 99.9997%, the limit of detection. The percent reduction at 30 seconds, 2 minutes and 10 minutes were also 99.9997%. When 0.1 ml of the 1% dispersion was diluted with 9.9 ml of sterile water to prepare a 0.1% dispersion and the same tests run, the percent reduction in bacteria count was 99.9997% at the 30-second contact time.
(§2) The 1% dispersion described in Example 3 was contacted with the Gram-negative bacteria Escherichia coli 8739 and Pseudomonas aeruginosa 15442 each in the manner described in Example 2. After 30 seconds of contact time, the reductions of the test bacteria were 99.9996% and 99.995% respectively.

Series [2] relates to Pseudomonas aeruginosa 15442. Nature of the series: ASTM E2315 antibacterial activity. The series is classed as cell-based. As to conditions: 1% dispersion, 30 seconds contact time. The procedure: as §1, §2
For series [3], the system named is Enterococcus faecalis 29212. Nature of the series: ASTM E2315 antibacterial activity. The series is classed as cell-based. As to conditions: 1% dispersion, 30 second contact time. Here is the method: as §1
The same dispersion used in Examples 4 and 5 was tested against Gram-positive Enterococcus faecalis 29212 in the manner described in Example 2. After 30 second contact time, the bacterial reduction was >99.9986%.

Series [4] relates to Salmonella enterica ATCC 10708. Description: AOAC International Use-Dilution Method (hard surface disinfectant, steel penicylinders). The series is classed as cell-based. The settings on record: 2% dispersion, ten minutes exposure.
Another series can be described thus: pH of water dispersion. The series is classed as physicochemical. The procedure: (§3) A slurry of white solid formed immediately. About 200 ml of distilled water were added with stirring to obtain a clear solution with a pH of 8. […] It melted sharply at 62° C.
After standing for 4 hours, a white, opaque, uniform thin liquid was obtained. The pH of the liquid was 6. The bottle was then shaken vigorously for several minutes. The contents of the bottle changed to a foamy, motionless, thick gel that totally filled the bottle. After standing overnight, the gel remained the same, still filling the bottle. But after standing for 48 hours, the gel reverted to the original thin liquid. Upon shaking the bottle again, the thick gel reappeared.

A short description of series [5]: Stability of solid and of water dispersion on storage. The series is classed as physicochemical. The settings on record: no emulsifier or surfactant.
Excerpt: The compounds are believed to form as the result of hydrogen bonding wherein a hydrogen atom covalently bonded to nitrogen becomes attracted to the oxygen of the carboxylic acid forming a hydrogen bond.
Since the compounds are stable at ambient temperatures and pressures and exist as non-hygroscopic crystalline solids, they may be transported as 100% active ingredients to their point of use. […] The compounds can be stored and shipped in any type of container, including plastic, paper or cloth bags, metal, glass or plastic. In an embodiment, the compounds can be transported in such containers to the point of use by mixing with water to produce disinfecting compositions.
When the solid compound is mixed with water, it completely distributes in the water to produce a uniform composition in the absence of any emulsifier, surfactant, soap, wetting agent, dispersing agent or suspending agent. The solid compound, while being water-insoluble, remains stable as a dispersion indefinitely.
as §3

In another series the test system is S. aureous. Description: AOAC International Use-Dilution Method, comparison test. The settings on record: 2.5% solution.
The next series deals with Streptococcus Group A. The settings on record: even numbered fatty acids C8 to C18; cited from earlier work.
The subject of another series is Staphlycoccus aureous. The settings on record: even numbered fatty acids C8 to C18; cited from earlier work.
For the next series, the system named is Candida albicans. As to conditions: even numbered fatty acids C8 to C18; cited from earlier work.

Bounds are passed on as bounds.

Method for S. aureous: In this test, 60 sterilized steel penicylinders are inoculated by soaking in a test culture of the bacteria. The cylinders are then dried in an incubator. After drying, they are submerged in test tubes containing the test substance and allowed to incubate for ten minutes. They are then aseptically transferred to individual tubes containing neutralization/growth medium. The neutralization/growth medium tubes are shaken and incubated. After the incubation period, tubes are qualitatively assessed for growth of the test organism.
AOAC has defined the passing criteria for this test as a disinfectant to be less than or equal to 3 positive carriers out of 60 when testing against S. aureous.

Regarding ammonium di-nonanoate [Example 1], the “percent reduction in bacteria count” value in series [1] (0.1% dispersion in water, 30-second contact time) is 99.9997%. The “percent reduction in bacteria” value in [1] (30 seconds contact time) is listed as 99.9997%; in series [1] (2 minutes contact time), 99.9997%; in [1] (10 minutes contact time), 99.9997%; in [1] (time zero, 25° C., 1×10^6 CFU/ml, 99.9997% = limit of detection) it was 99.9997%. The “percent reduction of the test bacteria” value in series [1] (1% dispersion of solid stored in a plastic container for over 5 years) is given as greater than 99.9997%. Besides, the figures for the “reduction of the test bacteria” value (in the series on Escherichia coli 8739; in series [2]) were 99.9996% and 99.995%, respectively. The molecule further returned a bacterial reduction in [3] greater than 99.9986%. In addition, the “AOAC disinfectant test result” value in [4] is recorded as “pass”. Besides, the “number of positive test tubes (growth) out of 60 carriers” value in series [4] (pass = less than or equal to 1 positive carrier out of 60) amounted to 0. For the same molecule, the “pH of water dispersion” value in “pH of water dispersion” (1% dispersion in distilled water), in “pH of water dispersion” (10% dispersion in distilled water) and in “pH of water dispersion” (concentration not given) was 6 in each case. For the same molecule, in series [5], the “stability of water dispersion on storage” value is recorded as “remained unchanged in appearance after months of storage”.
On to ammonium di-octanoate [Example 10], for which the “percent reduction of the test bacteria” value in series [1] (0.5% dispersion in water) was greater than 99.988%. Further, the “pH of water dispersion” value in the series “pH of water dispersion” (0.5% dispersion in distilled water) was 6.
On to `CCCCCCCCC(=O)O.N` [ammonium nonanoate], for which, in the series on S. aureous, the “AOAC disinfectant test result” value was “no disinfectant properties”. In addition, the “number of confirmed positive test tubes out of 60 carriers” value in the series on S. aureous (pass = less than or equal to 3 positive carriers out of 60) came to 60.
As to `CCCCCCCCCC(=O)O` [capric acid], the “antimicrobial activity among fatty acids tested” value in the series with Streptococcus Group A, in the series with Staphlycoccus aureous and in the series with Candida albicans was “highest activity” each time.

These data come from US10588313B1, “Compounds of fatty acids and ammonium fatty acid salts” (Falcon Lab, LLC, priority 2019, dated 2020).
